Data from ChEMBL document CHEMBL1201862, “PubChem BioAssay data set” (2004).
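Following 48 hours of exposure in 96-well plates, responses at five concentrations were used to interpolate endpoints linearly. GI50: concentration for 50% inhibition of growth.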 Active and inactive are the calls of the source. Rule as the data show it: active = GI50 up to about 1.1 µM and inactive = higher.

Assays:
Assay in all cases: NCI-60 cell line screen, 48 h
A498 = system: A498
CCRF-CEM = system: CCRF-CEM
EKVX = system: EKVX
HT-29 = system: HT-29
IGROV-1 = system: IGROV-1
KM12 = system: KM12
M14 = system: M14
MOLT-4 = system: MOLT-4
Malme-3M = system: Malme-3M
OVCAR-3 = system: OVCAR-3
OVCAR-4 = system: OVCAR-4
SF-295 = system: SF-295
SK-MEL-2 = system: SK-MEL-2
SK-MEL-5 = system: SK-MEL-5
SN12C = system: SN12C
UACC-62 = system: UACC-62
UO-31 = system: UO-31
SR = system: SR

| Structure (SMILES) | GI50 (A498) | GI50 (CCRF-CEM) | GI50 (EKVX) | GI50 (HT-29) | GI50 (IGROV-1) | GI50 (KM12) | GI50 (M14) | GI50 (MOLT-4) | GI50 (Malme-3M) | GI50 (OVCAR-3) | GI50 (OVCAR-4) | GI50 (SF-295) | GI50 (SK-MEL-2) | GI50 (SK-MEL-5) | GI50 (SN12C) | GI50 (UACC-62) | GI50 (UO-31) | GI50 (SR) |
| --- | --- | --- | --- | --- | --- | --- | --- | --- | --- | --- | --- | --- | --- | --- | --- | --- | --- | --- |
| COC(=O)C1=C(CO)C2C=CC1C2 (stereo unspecified) | > 100 µM (inactive) | > 100 µM (inactive) | > 100 µM (inactive) | > 100 µM (inactive) | > 100 µM (inactive) | > 100 µM (inactive) | > 100 µM (inactive) | > 100 µM (inactive) | > 100 µM (inactive) | > 100 µM (inactive) | > 100 µM (inactive) | > 100 µM (inactive) | > 100 µM (inactive) | > 100 µM (inactive) | > 100 µM (inactive) | > 100 µM (inactive) | > 100 µM (inactive) |  |
| c1ccc(C2N=NN(c3ccccc3)C2N2CCCCC2)cc1 (stereo unspecified) |  | > 100 µM (inactive) | > 100 µM (inactive) | > 100 µM (inactive) | 52.2 µM (inactive) | > 100 µM (inactive) | > 100 µM (inactive) | > 100 µM (inactive) | > 100 µM (inactive) | > 100 µM (inactive) | > 100 µM (inactive) | 33.8 µM (inactive) | > 100 µM (inactive) | > 100 µM (inactive) | > 100 µM (inactive) | 67 µM (inactive) | > 100 µM (inactive) | > 100 µM (inactive) |
| Cc1ccc(NC(=O)c2nc(S)nc(N)c2-c2ccccc2C)cc1C | > 100 µM (inactive) | > 100 µM (inactive) | > 100 µM (inactive) | > 100 µM (inactive) | > 100 µM (inactive) | > 100 µM (inactive) | > 100 µM (inactive) | > 100 µM (inactive) | > 100 µM (inactive) | > 100 µM (inactive) | > 10 µM (inactive) |  | > 100 µM (inactive) | > 100 µM (inactive) | > 100 µM (inactive) | > 100 µM (inactive) | > 100 µM (inactive) |  |
| Nc1nc(N)c(N=O)c(Nc2ccc(I)cc2)n1 |  | 13.8 µM (inactive) | > 100 µM (inactive) |  | 3.94 µM (inactive) | 18.5 µM (inactive) | 12.4 µM (inactive) | 3.98 µM (inactive) | 19.2 µM (inactive) | 13.2 µM (inactive) |  | 28.6 µM (inactive) | 15.3 µM (inactive) | 13.5 µM (inactive) | 10.6 µM (inactive) | 7.78 µM (inactive) | 18 µM (inactive) | 10.8 µM (inactive) |
| N#CC1([N+](=O)[O-])C=C1c1ccccc1 (stereo unspecified) |  | 21.1 µM (inactive) | > 100 µM (inactive) | 35.9 µM (inactive) | > 100 µM (inactive) | > 100 µM (inactive) | 42.6 µM (inactive) | 22.7 µM (inactive) | 63 µM (inactive) | > 100 µM (inactive) | > 100 µM (inactive) | > 100 µM (inactive) | > 100 µM (inactive) | 57.3 µM (inactive) | > 100 µM (inactive) | 20.9 µM (inactive) | > 100 µM (inactive) | 25.2 µM (inactive) |
| CC(C)(C)c1cc(CCC(=O)Nc2ccc(Cl)cc2Cl)nc(N)n1 |  | > 100 µM (inactive) | > 100 µM (inactive) | > 100 µM (inactive) | > 100 µM (inactive) | > 100 µM (inactive) | > 100 µM (inactive) | > 100 µM (inactive) | > 100 µM (inactive) | > 100 µM (inactive) | > 100 µM (inactive) | > 100 µM (inactive) | > 100 µM (inactive) | > 100 µM (inactive) | > 100 µM (inactive) | > 100 µM (inactive) | > 100 µM (inactive) | > 100 µM (inactive) |
| CC1Nc2ccccc2NC1C=C(C#N)C#N (stereo unspecified) |  | 2.72 µM (inactive) | 19.5 µM (inactive) | 16.7 µM (inactive) | 18.1 µM (inactive) | 16.5 µM (inactive) | 11.9 µM (inactive) | 5.96 µM (inactive) | 16.7 µM (inactive) | 15.8 µM (inactive) | 15.9 µM (inactive) | 15.5 µM (inactive) | 21.3 µM (inactive) | 17.1 µM (inactive) | 15.6 µM (inactive) | 16.1 µM (inactive) | 15 µM (inactive) | 5.61 µM (inactive) |
| Cc1ccc(NC(=O)CC2SC(Nc3cccc(Cl)c3C)=NC2=O)cc1 (stereo unspecified) | 33 µM (inactive) | 32.1 µM (inactive) | 70 µM (inactive) | > 100 µM (inactive) | 94.8 µM (inactive) | 40.9 µM (inactive) | 38.8 µM (inactive) | 33 µM (inactive) | 52.4 µM (inactive) | 23 µM (inactive) | 28.7 µM (inactive) | 39.6 µM (inactive) | 44.6 µM (inactive) | 29.6 µM (inactive) | 50.9 µM (inactive) | 42 µM (inactive) | 22.6 µM (inactive) |  |
| CC1CCCC(C(=O)/C(=C/c2cccc(Cl)c2)C(=O)C(=O)O)C1 (stereo unspecified) | > 100 µM (inactive) | 19.3 µM (inactive) | 47.1 µM (inactive) | 18.4 µM (inactive) | 30.9 µM (inactive) | 15.6 µM (inactive) | 29.7 µM (inactive) | 19 µM (inactive) | > 100 µM (inactive) | 24.7 µM (inactive) | 37.8 µM (inactive) | 50.4 µM (inactive) |  | 68.2 µM (inactive) | 72.1 µM (inactive) | 36.9 µM (inactive) | 61.2 µM (inactive) |  |
| Cc1nc(=O)n2c(C)n[nH]c2c1C(=O)Nc1cc(Cl)cc(Cl)c1 |  | 20.2 µM (inactive) | 31.1 µM (inactive) | 31.3 µM (inactive) | 24.5 µM (inactive) | 31.9 µM (inactive) | 35.6 µM (inactive) | 26.9 µM (inactive) | 30.9 µM (inactive) | 14.2 µM (inactive) | 29.2 µM (inactive) | 31.4 µM (inactive) |  | 16.1 µM (inactive) | 15.9 µM (inactive) | 16.2 µM (inactive) | 20.4 µM (inactive) | 19.9 µM (inactive) |
| COc1cccc2c1C(=O)c1c(O)c3c(c(O)c1C2=O)C[C@@](O)(C(=O)CO)CC3OC1CC(N(C)CCOCC(OC(C)=O)OC(C)=O)C(O)C(C)O1 (stereo partly specified) |  | > 0.01 µM (active) | > 0.01 µM (active) | > 0.01 µM (active) | > 0.01 µM (active) | > 0.01 µM (active) | > 0.01 µM (active) | > 0.01 µM (active) | > 0.01 µM (active) | > 0.01 µM (active) | > 0.01 µM (active) | > 0.01 µM (active) | > 0.01 µM (active) | > 0.01 µM (active) | > 0.01 µM (active) | > 0.01 µM (active) | > 0.01 µM (active) |  |
| CC(O)(c1ccc(OCCC[N+](C)(C)C)cc1)C(C)(O)c1ccc(OCCC[N+](C)(C)C)cc1 (stereo unspecified) | > 100 µM (inactive) | > 100 µM (inactive) | > 100 µM (inactive) | > 100 µM (inactive) | > 100 µM (inactive) | > 100 µM (inactive) | > 100 µM (inactive) |  | > 100 µM (inactive) | > 100 µM (inactive) | > 100 µM (inactive) | > 100 µM (inactive) | > 100 µM (inactive) |  | > 100 µM (inactive) | > 100 µM (inactive) | > 100 µM (inactive) |  |
